The record followed here is ChEMBL document CHEMBL1697731, “Cheminformatics analysis of assertions mined from literature that describe drug-induced liver injury in different species” (Chem Res Toxicol, 2010).

Data set [1] concerns Hepatotoxicity. Briefly: Literature-mined compound from Fourches et al multi-species drug-induced liver injury (DILI) dataset, effect in humans. The settings on record: human.
In data set [2] the test system is Hepatotoxicity. Description: Literature-mined compound from Fourches et al multi-species drug-induced liver injury (DILI) dataset, effect in rodents. Conditions: rodentia.
Data set [3] relates to Hepatotoxicity. Description: Literature-mined compound from Fourches et al multi-species drug-induced liver injury (DILI) dataset, effect in non-rodents.

Take `CN1C(=O)OC(C)(C)C1=O` [TRIMETHADIONE]: the figures for the Hepatotoxicity entry with Hepatotoxicity [1], with Hepatotoxicity [2] and in the data set with Hepatotoxicity [3] were “drug-induced liver injury reported”, “drug-induced liver injury reported” and “no drug-induced liver injury reported”, respectively.
In the case of `Cc1ncc(COP(=O)(O)O)c(C=O)c1O` [PYRIDOXAL PHOSPHATE ANHYDROUS], the results for the Hepatotoxicity result with Hepatotoxicity [1], with Hepatotoxicity [2] and in the data set on Hepatotoxicity [3] were “no drug-induced liver injury reported”, “drug-induced liver injury reported” and “no drug-induced liver injury reported”, respectively.
Consider `C[C@]12Cc3c[nH]nc3C[C@@H]1CC[C@@H]1[C@@H]2CC[C@@]2(C)[C@H]1CC[C@]2(C)O` [STANOZOLOL], for which the Hepatotoxicity entry with Hepatotoxicity [1] is on record as “drug-induced liver injury reported”; with Hepatotoxicity [2], “drug-induced liver injury reported”; in the data set with Hepatotoxicity [3], “no drug-induced liver injury reported”.
For the compound `O=C1O[C@H]([C@@H](O)CO)C(O)=C1O` [ASCORBIC ACID], the Hepatotoxicity result in the data set on Hepatotoxicity [1], in the data set on Hepatotoxicity [2] and in the data set on Hepatotoxicity [3] was “drug-induced liver injury reported” throughout.
As to `OCCSCCCCCCCCCCSCCO` [TIADENOL], the values for the Hepatotoxicity result in the data set with Hepatotoxicity [1], in the data set with Hepatotoxicity [2] and in the data set with Hepatotoxicity [3] were “no drug-induced liver injury reported”, “drug-induced liver injury reported” and “no drug-induced liver injury reported”, respectively.
Take `Cn1cnc2c(F)c(Nc3ccc(Br)cc3Cl)c(C(=O)NOCCO)cc21` [SELUMETINIB]: the figures for the Hepatotoxicity entry in the data set on Hepatotoxicity [1], with Hepatotoxicity [2] and with Hepatotoxicity [3] were “no drug-induced liver injury reported”, “drug-induced liver injury reported” and “no drug-induced liver injury reported”, respectively.
Regarding `C[C@H](N)Cc1ccccc1` [DEXTROAMPHETAMINE], the Hepatotoxicity entry was “no drug-induced liver injury reported” in the data set with Hepatotoxicity [1], “drug-induced liver injury reported” with Hepatotoxicity [2] and “no drug-induced liver injury reported” in the data set on Hepatotoxicity [3].
`NC(=O)c1cnccn1` [PYRAZINAMIDE]: the results for the Hepatotoxicity result in the data set with Hepatotoxicity [1], in the data set with Hepatotoxicity [2] and with Hepatotoxicity [3] were “drug-induced liver injury reported”, “drug-induced liver injury reported” and “no drug-induced liver injury reported”, respectively.
In the case of `CCCCC(CC)CN1CN(CC(CC)CCCC)CC(C)(N)C1` (stereo unspecified) [HEXETIDINE], the Hepatotoxicity result is listed as “no drug-induced liver injury reported” in the data set on Hepatotoxicity [1], “drug-induced liver injury reported” in the data set with Hepatotoxicity [2] and “no drug-induced liver injury reported” in the data set with Hepatotoxicity [3].
With `C=CC1=C(C(=O)O)N2C(=O)[C@@H](NC(=O)/C(=N\OCC(=O)O)c3csc(N)n3)[C@H]2SC1` [CEFIXIME], the Hepatotoxicity result in the data set on Hepatotoxicity [1] is listed as “drug-induced liver injury reported”; with Hepatotoxicity [2], “no drug-induced liver injury reported”; in the data set on Hepatotoxicity [3], “no drug-induced liver injury reported”.
With `CC1=C(/C=C/C(C)=C/C=C/C(C)=C\C(=O)O)C(C)(C)CCC1` [ISOTRETINOIN], the values for the Hepatotoxicity entry in the data set with Hepatotoxicity [1], in the data set with Hepatotoxicity [2] and in the data set with Hepatotoxicity [3] were “drug-induced liver injury reported”, “no drug-induced liver injury reported” and “no drug-induced liver injury reported”, respectively.
As to CARBOPLATIN, the Hepatotoxicity entry in the data set with Hepatotoxicity [1] is reported as “drug-induced liver injury reported”; in the data set on Hepatotoxicity [2], “drug-induced liver injury reported”; with Hepatotoxicity [3], “no drug-induced liver injury reported”.
For `Nc1cc(-c2ccncc2)c[nH]c1=O` [INAMRINONE], the Hepatotoxicity entry in the data set on Hepatotoxicity [1] is “no drug-induced liver injury reported”; with Hepatotoxicity [2], “drug-induced liver injury reported”; with Hepatotoxicity [3] it was “no drug-induced liver injury reported”.
In the case of `CCOC(=O)CC(SP(=S)(OC)OC)C(=O)OCC` (stereo unspecified) [MALATHION], the Hepatotoxicity entry is given as “no drug-induced liver injury reported” with Hepatotoxicity [1], “drug-induced liver injury reported” in the data set on Hepatotoxicity [2] and “no drug-induced liver injury reported” in the data set with Hepatotoxicity [3].
In the case of `CCCCCCCCCCCCCCCCCC(=O)O.CC[C@H]1OC(=O)[C@H](C)[C@@H](O[C@H]2C[C@@](C)(OC)[C@@H](O)[C@H](C)O2)[C@H](C)[C@@H](O[C@@H]2O[C@H](C)C[C@H](N(C)C)[C@H]2O)[C@](C)(O)C[C@@H](C)C(=O)[C@H](C)[C@@H](O)[C@]1(C)O` [ERYTHROMYCIN STEARATE], the values for the Hepatotoxicity result with Hepatotoxicity [1], in the data set with Hepatotoxicity [2] and in the data set with Hepatotoxicity [3] were “drug-induced liver injury reported”, “no drug-induced liver injury reported” and “no drug-induced liver injury reported”, respectively.
As for `CC[C@H](C)C(=O)O[C@H]1C[C@H](O)C=C2C=C[C@H](C)[C@H](CC[C@@H](O)C[C@@H](O)CC(=O)O)[C@H]21` [PRAVASTATIN], the Hepatotoxicity entry in the data set with Hepatotoxicity [1], in the data set on Hepatotoxicity [2] and in the data set on Hepatotoxicity [3] was “drug-induced liver injury reported” each time.
Turning to `O=C1CC[C@@]2(O)[C@H]3Cc4ccc(O)c5c4[C@@]2(CCN3CC2CC2)[C@H]1O5` [NALTREXONE], the Hepatotoxicity entry in the data set with Hepatotoxicity [1] was “drug-induced liver injury reported”; in the data set on Hepatotoxicity [2], “drug-induced liver injury reported”; in the data set on Hepatotoxicity [3], “no drug-induced liver injury reported”.
`C[C@]12CC[C@H]3[C@@H](CCC4=CC(=O)CC[C@@]43C)[C@@H]1CC[C@@H]2O` [TESTOSTERONE]: the Hepatotoxicity result in the data set with Hepatotoxicity [1], in the data set with Hepatotoxicity [2] and in the data set with Hepatotoxicity [3] was “drug-induced liver injury reported” each time.
With `C[C@H](CCC(=O)O)[C@H]1CC[C@H]2[C@@H]3[C@@H](O)C[C@@H]4C[C@H](O)CC[C@]4(C)[C@H]3CC[C@]12C` [URSODIOL], the Hepatotoxicity entry in the data set on Hepatotoxicity [1], with Hepatotoxicity [2] and with Hepatotoxicity [3] was “drug-induced liver injury reported” in each case.
For the compound `C[Se]CC[C@H](N)C(=O)O` [SELENOMETHIONINE], the figures for the Hepatotoxicity result with Hepatotoxicity [1], in the data set with Hepatotoxicity [2] and with Hepatotoxicity [3] were “no drug-induced liver injury reported”, “drug-induced liver injury reported” and “drug-induced liver injury reported”, respectively.
With `CCC1(CC)C(=O)NC(=O)NC1=O` [BARBITAL], the Hepatotoxicity entry in the data set with Hepatotoxicity [1] is “no drug-induced liver injury reported”; in the data set on Hepatotoxicity [2] it was “drug-induced liver injury reported”; in the data set on Hepatotoxicity [3], “no drug-induced liver injury reported”.
Regarding `CN(C)CCC=C1c2ccccc2CCc2ccccc21` [AMITRIPTYLINE], the Hepatotoxicity entry in the data set on Hepatotoxicity [1] is “drug-induced liver injury reported”; in the data set on Hepatotoxicity [2], “drug-induced liver injury reported”; in the data set with Hepatotoxicity [3], “no drug-induced liver injury reported”.
Take `CCCCNc1cc(C(=O)O)cc(S(N)(=O)=O)c1Oc1ccccc1` [BUMETANIDE]: the Hepatotoxicity entry in the data set with Hepatotoxicity [1] is “no drug-induced liver injury reported”; in the data set with Hepatotoxicity [2] it was “no drug-induced liver injury reported”; in the data set on Hepatotoxicity [3] it was “drug-induced liver injury reported”.
For `CC#C[C@]1(O)CC[C@H]2[C@@H]3CCC4=CC(=O)CCC4=C3[C@@H](c3ccc(N(C)C)cc3)C[C@@]21C` [MIFEPRISTONE], the Hepatotoxicity entry in the data set on Hepatotoxicity [1] is on record as “no drug-induced liver injury reported”; in the data set on Hepatotoxicity [2] it was “drug-induced liver injury reported”; with Hepatotoxicity [3], “no drug-induced liver injury reported”.
On to `COc1ccc2cc(CCC(C)=O)ccc2c1` [NABUMETONE], for which the Hepatotoxicity result in the data set with Hepatotoxicity [1] was “no drug-induced liver injury reported”; in the data set with Hepatotoxicity [2], “drug-induced liver injury reported”; in the data set on Hepatotoxicity [3], “no drug-induced liver injury reported”.
Turning to `c1ccc([C@H]2CN3CCSC3=N2)cc1` [LEVAMISOLE], the Hepatotoxicity result in the data set on Hepatotoxicity [1] (Liver) is on record as “drug-induced liver injury reported”; in the data set with Hepatotoxicity [2] (Liver), “drug-induced liver injury reported”; with Hepatotoxicity [3] (Liver) it was “no drug-induced liver injury reported”.
In the case of `Cc1c(OCC(F)(F)F)ccnc1C[S+]([O-])c1nc2ccccc2[nH]1` (stereo unspecified) [LANSOPRAZOLE], the values for the Hepatotoxicity result in the data set on Hepatotoxicity [1], with Hepatotoxicity [2] and with Hepatotoxicity [3] were “drug-induced liver injury reported”, “no drug-induced liver injury reported” and “no drug-induced liver injury reported”, respectively.
As for `O=C(O)c1cc(-c2ccc(F)cc2F)ccc1O` [DIFLUNISAL], the Hepatotoxicity entry in the data set with Hepatotoxicity [1] (Liver), in the data set on Hepatotoxicity [2] (Liver) and in the data set on Hepatotoxicity [3] (Liver) was “drug-induced liver injury reported” in each case.
Regarding `COc1ccc([C@@H]2Sc3ccccc3N(CCN(C)C)C(=O)[C@@H]2OC(C)=O)cc1` [DILTIAZEM], the Hepatotoxicity result in the data set with Hepatotoxicity [1], in the data set with Hepatotoxicity [2] and in the data set on Hepatotoxicity [3] was “drug-induced liver injury reported” throughout.
Turning to `CNCCC=C1c2ccccc2CCc2ccccc21` [NORTRIPTYLINE], the Hepatotoxicity result in the data set with Hepatotoxicity [1] (Liver) is “drug-induced liver injury reported”; in the data set with Hepatotoxicity [2] (Liver), “no drug-induced liver injury reported”; in the data set with Hepatotoxicity [3] (Liver), “no drug-induced liver injury reported”.
Take `CC(=O)[C@H]1CC[C@H]2[C@@H]3C=CC4=CC(=O)CC[C@@]4(C)[C@@H]3CC[C@]12C` [DYDROGESTERONE]: the Hepatotoxicity result in the data set with Hepatotoxicity [1] is “drug-induced liver injury reported”; with Hepatotoxicity [2], “drug-induced liver injury reported”; with Hepatotoxicity [3], “no drug-induced liver injury reported”.
Consider `CC(C)C[C@H](NC(=O)[C@@H](Cc1ccc2ccccc2c1)NC(=O)[C@H](Cc1ccc(O)cc1)NC(=O)[C@H](CO)NC(=O)[C@H](Cc1c[nH]c2ccccc12)NC(=O)[C@H](Cc1c[nH]cn1)NC(=O)[C@@H]1CCC(=O)N1)C(=O)N[C@@H](CCCNC(=N)N)C(=O)N1CCC[C@H]1C(=O)NCC(N)=O` [NAFARELIN], for which the Hepatotoxicity result is listed as “drug-induced liver injury reported” in the data set with Hepatotoxicity [1], “no drug-induced liver injury reported” in the data set with Hepatotoxicity [2] and “no drug-induced liver injury reported” in the data set on Hepatotoxicity [3].
